Data published in patent US5691334A, “Pyrrolydenemethyl-derivatives and process for their preparation” (Pharmacia & Upjohn S.p.A., priority 1993, dated 1997).
Structures can show the parent of a compound that is named as a salt. Where two headings read alike, the source gives them in different places.

Assays:
murine splenocytes = assay: Lymphocyte proliferation (tests 1 and 2: murine splenocytes induced by ConA / by irradiated allogenic spleen cells, MLR); assay type: cell-based; settings: for IC50: Mus musculus, Splenocyte, read-out: IC50 lymphocyte proliferation (upper and lower limits); for TI (therapeutic index): ratio of mean IC50 on tumor cells growth (test 3) to IC50 on lymphocytes proliferation (tests 1 and 2)
Experimental: Proliferation of murine splenocytes induced by the mitogen Concanavaline A.
Proliferation of murine splenocytes induced by irradiated allogenic murine spleen cells (MLR).
Tests 1 and 2 allow the study of the compounds on proliferation models mediated by T-cell growth factors (e.g. IL-2) and are considered immunologically specific.
Spleens were aseptically removed from C57B1/6 mice and a cell suspension prepared in complete medium. Cell viability was evaluated by trypan blue exclusion.
Spleen cells (4×10^5) were cultured in triplicate in a volume of 0.15 ml, in flat bottomed microculture plates, in the absence or presence of an optimal concentration of ConA (1.7 microgr/ml) and of different concentrations of the test compound. Cultures were incubated for 72 h at 37° C. in a humidified, 5% CO2 incubator; 18 h before termination of the cultures, 0.2 microCi of [methyl-^3 H]thymidine were added to each well. Cells were harvested on glass fiber filters and the [^3 H]TdR uptake (cpm) quantified in a liquid scintillation counter.
Spleens were aseptically removed from C57B1/6 mice (responders) and Balb/c mice (stimulators), and cell suspensions prepared in complete medium. Responder cells (1×10^6) were cocultured in triplicate with irradiated (1500R) stimulator cells (5×10^5) in a volume of 0.15 ml in the presence or absence of different concentrations of the test compound, in flat bottomed microculture plates. Cultures were incubated for 96 h at 37° C. in a humidified, 5% CO2 incubator; the last 18 h in the presence of 0.2 microCi of ^3 H-TdR.
Cells were harvested on glass fiber filter and the ^3 H-TdR uptake (cpm) quantified in a liquid scintillation counter.
The concentration inhibiting 50% (IC50) of the cell proliferation in the different settings is calculated for the test compounds and the reference standard UP. The ratio between the mean IC50 values on tumor cells growth (test 3) and the IC50 on lymphocytes proliferation (measured by test 1 and 2) produces the therapeutic index (TI) of the compounds.

[1] = test system: tumor cell lines (human erythroleukemia K562, murine melanoma B16); assay: Tumor cell growth (test 3: proliferation of human erythroleukemia K562, murine melanoma B16; MTT); assay type: cell-based; settings: read-out: IC50 tumor cell growth (upper and lower limits)
Experimental: Proliferation of tumor cell lines (human erythroleukemia K562, murine melanoma B16).
Test 3 allows to investigate the inhibitory effect of the present compounds on a generic proliferation pathway, independent from immune-specific growth factors.
Tumor cells were collected in the logarithmic phase of growth and seeded in triplicate in flat bottomed microculture plates at the concentration of 1×10^4 in the presence or absence of different concentrations of the test compound. After 48 h incubation at 37° C. in 5% CO2, the cell viability was evaluated by the MTT colorimetric method according to Ferrari et al., J. Immunol.
The concentration inhibiting 50% (IC50) of the cell proliferation in the different settings is calculated for the test compounds and the reference standard UP.

[2] = tests 1 and 2, [3H]thymidine uptake, ConA 72 h, MLR 96 h, limits in parentheses
[3] = test 3, mean IC50 on tumor cells (K562, B16), 48 h, MTT, limits in parentheses

SMILES | IC50 (murine splenocytes) | TI (therapeutic index) (murine splenocytes) | IC50 ([1]; K562, 48 h) | IC50 (murine splenocytes; [2]) | IC50 [1, 3]
CCCCCCCCCCCC1=NC(=Cc2[nH]c(-c3ccc[nH]3)cc2OCC)C=C1.Cl [FCE 28512, 4-ethoxy-5-[(5-undecyl-2H-pyrrol-2-ylidene)methyl]-2,2'-bi-1H-pyrrole, hydrochloride] | 0.0023 µg/mL | 222 | 0.511 µg/mL | – | –
CCCCCCCCCCCCCC1=NC(=Cc2[nH]c(-c3ccc[nH]3)cc2OC)C=C1.Cl [FCE 28526, 4-methoxy-5-[(5-tridecyl-2H-pyrrol-2-ylidene)methyl]-2,2'-bi-1H-pyrrole, hydrochloride] | – | 290 | – | 0.002 µg/mL | 0.584 µg/mL
CCCCCCCCCCCCCC1=NC(=Cc2[nH]c(-c3ccc[nH]3)cc2OCC)C=C1.Cl [FCE 28733, 4-ethoxy-5-[(5-tridecyl-2H-pyrrol-2-ylidene)methyl]-2,2'-bi-1H-pyrrole, hydrochloride] | 0.0051 µg/mL | 168 | 0.859 µg/mL | – | –
CCCCCCCCCCCC1=NC(=Cc2[nH]c(-c3ccc[nH]3)cc2OCCCC)C=C1 [FCE 28789, 4-buthoxy-5-[(5-undecyl-2H-pyrrol-2-ylidene)methyl]-2,2'-bi-1H-pyrrole, hydrochloride] | – | 66 | – | 0.0119 µg/mL | 0.784 µg/mL
CCCCCCCCCCCC1=NC(=Cc2[nH]c(-c3ccc[nH]3)cc2OCc2ccccc2)C=C1.Cl [FCE 29002, 4-benzyloxy-5-[(5-undecyl-2H-pyrrol-2-ylidene)methyl]-2,2'-bi-1H-pyrrole, hydrochloride] | 0.0301 µg/mL | 193 | 5.8 µg/mL | – | –
CCCCCCCCCCCC1=NC(=Cc2[nH]c(-c3ccc[nH]3)cc2OC)C=C1.Cl [UP, 4-methoxy-5-[(5-undecyl-2H-pyrrol-2-ylidene)methyl]-2,2'-bi-1H-pyrrole, hydrochloride, reference compound] | 0.0029 µg/mL | 36 | 0.106 µg/mL | – | –
